# Molecular target: AOC3 (Homo sapiens (Human), UniProt Q16853)
# Experiment: MAO-Glo AOC3 assay
# Format: biochemical
# Conditions: recombinant CHO cells overexpressing AOC3 enzyme
# Description: The MAO-Glo™ Assay (commercial available from PROMEGA, #V1402) provides a sensitive method for the measurement of monoamine oxidase (MAO) activity (Valley, M. P. et al., 2006, Anal. Biochem. 359: 238-246) from a variety of tissues, biofluids or recombinant expressed or purified enzymes. As substrate a derivate of the beetle luciferin ((4S)-4,5-dihydro-2-(6-hydroxybenzothiazolyl)-4-thiazole-carboxylic acid) is used, which is oxidized at a primary amine moiety. After a spontaneous elimination and a catalyzed esterase reaction, the turnover of the luciferine by the luciferase is recorded as a signal of AOC3 activity.
# An aliquot of 3 μL of the compound dilution is added to a 384 well plate (Optiplate, PS, flat bottom, white, PERKIN ELMER, #6007290) with a final DMSO concentration of 6.6%. Recombinant CHO cells, overexpressing the human (1500 cells/well), mouse (1000 cells/well) or rat (500 cells/well) AOC3 enzyme are diluted in reaction buffer and added in a volume of 15 μL to the wells. After incubation for 20 minutes at 37° C., 2 μL of MAO substrate (dissolved in DMSO at 16 mM, adjusted to assay concentration in reaction buffer to a final assay concentration of 20 μM) is added and further incubated for 60 minutes at 37° C. The turnover of the substrate is determined by the addition of 20 μL of the detection-mix which was generated by the addition of reconstitution buffer with esterase (PROMEGA, #V1402) to the luciferine detection reagent (PROMEGA, #V1402). After an incubation period of 20 minutes, the luminescent signal is measured with Envision 2104 Multilabel Reader (PERKIN ELMER).
# AOC3, sequence (Q16853 whole entry): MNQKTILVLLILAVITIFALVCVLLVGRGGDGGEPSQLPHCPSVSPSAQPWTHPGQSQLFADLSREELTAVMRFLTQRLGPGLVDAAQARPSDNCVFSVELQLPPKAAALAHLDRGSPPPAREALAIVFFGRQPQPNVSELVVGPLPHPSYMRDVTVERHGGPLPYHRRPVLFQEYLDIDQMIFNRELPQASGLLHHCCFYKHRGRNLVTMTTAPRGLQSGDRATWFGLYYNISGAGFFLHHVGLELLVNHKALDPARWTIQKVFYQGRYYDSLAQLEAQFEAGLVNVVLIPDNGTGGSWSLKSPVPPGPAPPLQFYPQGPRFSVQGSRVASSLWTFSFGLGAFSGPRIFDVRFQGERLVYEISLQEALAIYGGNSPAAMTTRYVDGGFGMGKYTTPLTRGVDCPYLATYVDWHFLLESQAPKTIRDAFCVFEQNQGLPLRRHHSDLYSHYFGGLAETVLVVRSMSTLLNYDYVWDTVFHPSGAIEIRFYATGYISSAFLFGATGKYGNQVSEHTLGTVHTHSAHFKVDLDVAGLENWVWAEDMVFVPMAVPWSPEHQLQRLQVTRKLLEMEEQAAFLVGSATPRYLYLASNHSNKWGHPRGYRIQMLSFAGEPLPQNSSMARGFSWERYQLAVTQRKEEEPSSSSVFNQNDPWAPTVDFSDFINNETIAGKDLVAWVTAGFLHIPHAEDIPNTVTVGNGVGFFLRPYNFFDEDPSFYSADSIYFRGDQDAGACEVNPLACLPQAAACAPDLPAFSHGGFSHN
row,SMILES,IC50 [nM]
1,N#Cc1ccc(COC(=O)NC(=N)N)c(F)c1N1CCN(c2ccncn2)CC1 [Example 1.001],7
2,CS(=O)(=O)c1ccc(N2CCN(c3c(C#N)ccc(COC(=O)NC(=N)N)c3F)CC2)cc1 [Example 1.002],6
3,CC(=O)N1CCN(C2CCN(c3c(C#N)ccc(COC(=O)NC(=N)N)c3F)CC2)CC1 [Example 1.003],67
4,CS(=O)(=O)N1CCC(C2CN(c3c(C#N)ccc(COC(=O)NC(=N)N)c3F)C2)CC1 [Example 1.004],24
5,N#Cc1ccc(COC(=O)NC(=N)N)c(F)c1N1CCN(c2ccnnc2)CC1 [Example 1.006],5
6,N#Cc1ccc(COC(=O)NC(=N)N)c(F)c1N1CCN(c2cnccn2)CC1 [Example 1.007],10
7,CC(=O)N1CCC(N2CCN(c3c(C#N)ccc(COC(=O)NC(=N)N)c3F)CC2)CC1 [Example 1.008],397
8,N#Cc1ccc(N2CCN(c3c(C#N)ccc(COC(=O)NC(=N)N)c3F)CC2)cc1 [Example 1.009],3
9,CC(=O)N1CCC(C2CN(c3c(C#N)ccc(COC(=O)NC(=N)N)c3F)C2)CC1 [Example 1.010],25
10,N#Cc1ccc(COC(=O)NC(=N)N)c(F)c1N1CCCN(c2cccnc2)CC1 [Example 1.011],95
11,N#Cc1ccc(COC(=O)NC(=N)N)c(F)c1N1CCN(c2cccnc2)CC1 [Example 1.012],6
12,N#Cc1ccc(C2CN(c3c(C#N)ccc(COC(=O)NC(=N)N)c3F)C2)cc1 [Example 1.013],19
13,CC(=O)N1CCC(C2CCN(c3c(C#N)ccc(COC(=O)NC(=N)N)c3F)CC2)CC1 [Example 1.014],4
14,CC(=O)N[C@@H](C)c1ccc(C2CN(c3c(C#N)ccc(COC(=O)NC(=N)N)c3F)C2)cc1 [Example 1.015],19
15,CCOc1cc(C2CCN(c3c(C#N)ccc(COC(=O)NC(=N)N)c3F)CC2)ccn1 [Example 1.016],12
16,CS(=O)(=O)N1CCC(C2CCN(c3c(C#N)ccc(COC(=O)NC(=N)N)c3F)CC2)CC1 [Example 1.017],5
17,CN1CCN(C2CCN(c3c(C#N)ccc(COC(=O)NC(=N)N)c3F)CC2)CC1=O [Example 1.018],169
18,N#Cc1ccc(COC(=O)NC(=N)N)c(F)c1N1CCC(c2ccncc2)C1 (centres unmarked) [Example 1.019],17
19,COc1ncc(N2CCN(c3cc(COC(=O)NC(=N)N)cc(F)c3C#N)CC2)cn1 [Example 1.020],70
20,COc1cccc(N2CCN(c3c(C#N)ccc(COC(=O)NC(=N)N)c3F)CC2)c1 [Example 1.021],21
21,N#Cc1cccc(C2CCN(c3c(C#N)ccc(COC(=O)NC(=N)N)c3F)CC2)c1 [Example 1.022],5
22,N#Cc1ccc(COC(=O)NC(=N)N)c(F)c1N1CCC(N2CCC(C(N)=O)CC2)CC1 [Example 1.024],50
23,N#Cc1ccc(COC(=O)NC(=N)N)c(F)c1N1CCC(c2cn3ccccc3n2)CC1 [Example 1.025],5
24,CN(C)C(=O)c1ccc(N2CCN(c3c(C#N)ccc(COC(=O)NC(=N)N)c3F)CC2)cc1 [Example 1.026],70

row,SMILES,IC50 [nM]
1,COC(=O)N1CCC(C2CCN(c3c(C#N)ccc(COC(=O)NC(=N)N)c3F)CC2)CC1 [Example 1.027],4
2,N#Cc1ccc(COC(=O)NC(=N)N)c(F)c1N1CCN(c2cccc(F)c2)CC1 [Example 1.028],14
3,N#Cc1ccc(COC(=O)NC(=N)N)c(F)c1N1CCC(c2ccccc2)CC1 [Example 1.029],71
4,N#Cc1ccc(COC(=O)NC(=N)N)c(F)c1N1CCC(c2nccs2)CC1 [Example 1.030],65
5,N#Cc1ccc(COC(=O)NC(=N)N)c(F)c1N1CCC(c2ccc(F)cc2)CC1 [Example 1.031],70
6,COc1cnc(C2CCN(c3c(C#N)ccc(COC(=O)NC(=N)N)c3F)CC2)nc1 [Example 1.032],110
7,N#Cc1ccc(COC(=O)NC(=N)N)c(F)c1N1CC=C(c2ccc(F)cc2)CC1 [Example 1.033],24
8,N#Cc1ccc(COC(=O)NC(=N)N)c(F)c1N1CCC(c2ccc(C(=O)O)cc2)CC1 [Example 1.035],4
9,N#Cc1ccc(COC(=O)NC(=N)N)c(F)c1N1CCN(c2nccs2)CC1 [Example 1.036],27
10,N#Cc1ccc(COC(=O)NC(=N)N)c(F)c1N1CCC(c2ncc(Cl)cn2)CC1 [Example 1.037],54
11,N#Cc1ccc(COC(=O)NC(=N)N)c(F)c1N1CCN(C2CCOCC2)CC1 [Example 1.038],579
12,Cc1ccc(N2CCN(c3c(C#N)ccc(COC(=O)NC(=N)N)c3F)CC2)nc1 [Example 1.039],42
13,N#Cc1cccc(N2CCN(c3c(C#N)ccc(COC(=O)NC(=N)N)c3F)CC2)c1 [Example 1.040],2
14,Cc1ccc(N2CCN(c3c(C#N)ccc(COC(=O)NC(=N)N)c3F)CC2)cc1 [Example 1.041],177
15,CS(=O)(=O)c1ccc(N2CCN(c3c(C#N)ccc(COC(=O)NC(=N)N)c3F)CC2)c(F)c1 [Example 1.042],46
16,N#Cc1ccc(COC(=O)NC(=N)N)c(F)c1N1CC=C(c2ncco2)CC1 [Example 1.043],17
17,CN(C)Cc1ccc(C2CCN(c3c(C#N)ccc(COC(=O)NC(=N)N)c3F)CC2)cc1 [Example 1.044],10
18,N#Cc1ccc(N2CCN(c3c(C#N)ccc(COC(=O)NC(=N)N)c3F)CC2)c(F)c1 [Example 1.045],29
19,N#Cc1ccc(COC(=O)NC(=N)N)c(F)c1N1CC=C(c2ccccc2)CC1 [Example 1.046],27
20,Cc1cccc(C2CCN(c3c(C#N)ccc(COC(=O)NC(=N)N)c3F)CC2)c1 [Example 1.047],65
21,COc1ccc(C2CCN(c3c(C#N)ccc(COC(=O)NC(=N)N)c3F)CC2)cc1 [Example 1.048],82
22,N#Cc1ccc(COC(=O)NC(=N)N)c(F)c1N1CCC(c2ccc(Cl)cc2)CC1 [Example 1.049],102
23,N#Cc1ccc(COC(=O)NC(=N)N)c(F)c1N1CCN(c2ccc(F)cc2)C(=O)C1 [Example 1.050],5
24,N#Cc1ccc(COC(=O)NC(=N)N)c(F)c1N1CCN(c2ccccn2)CC1 [Example 1.051],271

row,SMILES,IC50 [nM]
1,Cc1cc(C)cc(N2CCN(c3c(C#N)ccc(COC(=O)NC(=N)N)c3F)CC2)c1 [Example 1.052],146
2,N#Cc1ccc(COC(=O)NC(=N)N)c(F)c1N1CCN(C2CCCC2)C(=O)C1 [Example 1.053],15
3,N#Cc1ccc(COC(=O)NC(=N)N)c(F)c1N1CCC(C2CCOCC2)CC1 [Example 1.054],20
4,N#Cc1ccc(N2CCN(c3c(C#N)ccc(COC(=O)NC(=N)N)c3F)CC2)nc1 [Example 1.055],115
5,COc1cnc(N2CCN(c3c(C#N)ccc(COC(=O)NC(=N)N)c3F)CC2)nc1 [Example 1.056],15
6,N#Cc1ccc(COC(=O)NC(=N)N)c(F)c1N1CC=C(c2ccc(Cl)cc2)CC1 [Example 1.057],6
7,N#Cc1ccc(COC(=O)NC(=N)N)c(F)c1N1CCN(c2ccc(C(N)=O)cc2)CC1 [Example 1.058],71
8,N#Cc1ccc(COC(=O)NC(=N)N)c(F)c1N1CCN(c2ccccc2F)CC1 [Example 1.059],151
9,CCc1ccc(N2CCN(c3c(C#N)ccc(COC(=O)NC(=N)N)c3F)CC2)cc1 [Example 1.060],334
10,COc1cccc(C2=CCN(c3c(C#N)ccc(COC(=O)NC(=N)N)c3F)CC2)c1 [Example 1.061],30
11,CN1CCN(C2CCN(c3c(C#N)ccc(COC(=O)NC(=N)N)c3F)CC2)C(=O)C1 [Example 1.062],696
12,N#Cc1ccc(COC(=O)NC(=N)N)c(F)c1N1CC=C(c2ncccn2)CC1 [Example 1.063],34
13,CN(C)c1ccc(N2CCN(c3c(C#N)ccc(COC(=O)NC(=N)N)c3F)CC2)nn1 [Example 1.064],33
14,N#Cc1ccc(COC(=O)NC(=N)N)c(F)c1N1CCN(c2ccccc2)C(=O)C1 [Example 1.065],131
15,Cc1cccc(N2CCN(c3c(C#N)ccc(COC(=O)NC(=N)N)c3F)CC2)c1 [Example 1.066],20
16,COc1cnc(C2=CCN(c3c(C#N)ccc(COC(=O)NC(=N)N)c3F)CC2)nc1 [Example 1.067],77
17,Cc1ccc(N2CCN(c3c(C#N)ccc(COC(=O)NC(=N)N)c3F)CC2)nn1 [Example 1.068],55
18,N#Cc1ccc(COC(=O)NC(=N)N)c(F)c1N1CCN(c2ncc(F)cn2)CC1 [Example 1.069],27
19,CC1CN(c2c(C#N)ccc(COC(=O)NC(=N)N)c2F)CCN1c1ccccc1 (centres unmarked) [Example 1.070],64
20,Cc1cnc(C2=CCN(c3c(C#N)ccc(COC(=O)NC(=N)N)c3F)CC2)o1 [Example 1.071],12
21,Cc1ccc(C2CCN(c3c(C#N)ccc(COC(=O)NC(=N)N)c3F)CC2)cc1 [Example 1.072],211
22,N#Cc1ccc(COC(=O)NC(=N)N)c(F)c1N1CCN(c2ccc(C(F)(F)F)cc2)CC1 [Example 1.073],103
23,COc1ccc(N2CCN(c3c(C#N)ccc(COC(=O)NC(=N)N)c3F)CC2)cc1 [Example 1.074],128

# Reference: patent publication US10336729B2, “4-cyano-benzyl carbamimidoylcarbamate derivatives and their use as AOC3 inhibitors” (Boehringer Ingelheim International GmbH, priority 2016, dated 2019)
